Here are results for eleven molecules from ChEMBL document CHEMBL1201862, “PubChem BioAssay data set” (2004).

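Results reflect a 48-hour exposure of cells in 96-well plates to compound at five concentrations. Here, GI50 denotes the concentration required for 50% inhibition of growth.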 Calls of active or inactive are those of the source. Rule as the data show it: active = GI50 up to about 1.1 µM and inactive = higher. Some results are limits rather than exact numbers.

Among the test systems are A498; BT-549; CCRF-CEM; COLO 205; HCT-116; HOP-92; Hs-578T; IGROV-1; K562; LOX IMVI; NCI/ADR-RES; OVCAR-3; OVCAR-8; RPMI-8226; SF-268; SNB-75; SW-620; T47D; U-251.
Common to all, as to test: DTP human tumour cell line panel, 48 h

Regarding `Cc1cccc2c1CC(C1OC(=O)c3c(C)cccc31)C2=O` (stereo not given), the GI50 in the experiment with A498, in the experiment on BT-549, in the experiment on CCRF-CEM, in the experiment with COLO 205, in the experiment on HCT-116 and with HOP-92 was > 100 µM (inactive) throughout. The GI50 (as a rule, the concentration at which growth is held to half of that of the control) in the experiment with Hs-578T was > 100 µM (inactive); in the experiment with IGROV-1 it was > 100 µM (inactive); in the experiment on K562 it was > 100 µM (inactive); with LOX IMVI, 70.6 µM (inactive); in the experiment with NCI/ADR-RES it was > 100 µM (inactive); in the experiment on OVCAR-3, > 100 µM (inactive). Also, the GI50 in the experiment with OVCAR-8 is > 100 µM (inactive); in the experiment on RPMI-8226, 88.5 µM (inactive); in the experiment with SF-268, > 100 µM (inactive); in the experiment with SNB-75, > 100 µM (inactive); in the experiment on SW-620 it was > 100 µM (inactive); in the experiment on T47D, > 100 µM (inactive). Moreover, in the experiment with U-251, the GI50 is > 100 µM (inactive).

As to `COc1cc(C(=O)N(Cc2cccnc2)C(=S)N(Cc2cccnc2)C(=O)c2cc(OC)c(OC)c(OC)c2)cc(OC)c1OC`, the GI50 was 23.2 µM (inactive) in the experiment with A498; 28.5 µM (inactive) in the experiment with BT-549; 30.3 µM (inactive) in the experiment on CCRF-CEM; 35 µM (inactive) in the experiment on COLO 205; 31 µM (inactive) in the experiment with HCT-116; 15.1 µM (inactive) in the experiment with HOP-92. Moreover, the GI50 in the experiment on Hs-578T is > 100 µM (inactive); with K562, 52 µM (inactive); in the experiment on LOX IMVI, 30.7 µM (inactive); with NCI/ADR-RES, > 100 µM (inactive); in the experiment on OVCAR-3 it was 34.4 µM (inactive); in the experiment with OVCAR-8, 28.7 µM (inactive). For the same molecule, the GI50 in the experiment with RPMI-8226 was 56.6 µM (inactive); with SF-268 it was 40.4 µM (inactive); in the experiment with SNB-75 it was 21.4 µM (inactive); in the experiment on SW-620 it was 32.9 µM (inactive); with T47D it was 34.9 µM (inactive).

`COc1ccc(C(O)CNC(=O)c2ccccc2)cc1` (stereo not given): the GI50 in the experiment with A498, in the experiment with BT-549, in the experiment with CCRF-CEM, with COLO 205, in the experiment with HCT-116 and in the experiment on HOP-92 was > 100 µM (inactive) in each case. Further, the GI50 with Hs-578T, in the experiment with IGROV-1, in the experiment with K562, with LOX IMVI, with NCI/ADR-RES and in the experiment with OVCAR-3 was > 100 µM (inactive) each time. Besides, the GI50 in the experiment with OVCAR-8, in the experiment with RPMI-8226, in the experiment with SF-268, in the experiment with SNB-75, with SW-620 and in the experiment with T47D was > 100 µM (inactive) in each case. Also, the GI50 in the experiment on U-251 is > 100 µM (inactive).

Turning to `c1ccc(-c2cnc(-c3ccc(-c4ncc(-c5ccccc5)o4)cc3)o2)cc1`, the GI50 in the experiment with A498, in the experiment on BT-549, in the experiment with CCRF-CEM, with COLO 205, in the experiment on HCT-116 and with HOP-92 was > 100 µM (inactive) each time. The GI50 in the experiment on Hs-578T, in the experiment with IGROV-1, with K562, in the experiment with LOX IMVI, in the experiment on NCI/ADR-RES and in the experiment on OVCAR-3 was > 100 µM (inactive) each time. Besides, the GI50 with OVCAR-8 is > 100 µM (inactive); in the experiment on RPMI-8226, > 100 µM (inactive); with SF-268, > 100 µM (inactive); with SNB-75, 56.5 µM (inactive); in the experiment with SW-620, > 100 µM (inactive); in the experiment with T47D, > 100 µM (inactive). In addition, the GI50 in the experiment with U-251 is > 100 µM (inactive).

Consider `CCOC(=O)/C(C#N)=N\Nc1ccc(-n2c(C)nc3ccc(Br)cc3c2=O)cc1`, for which the GI50 is > 100 µM (inactive) in the experiment on A498; 88.7 µM (inactive) with BT-549; 33.2 µM (inactive) with CCRF-CEM; 58.3 µM (inactive) in the experiment on COLO 205; 42.2 µM (inactive) in the experiment with HCT-116; > 100 µM (inactive) in the experiment on HOP-92. Also, the GI50 was 51.3 µM (inactive) in the experiment with Hs-578T; 41.9 µM (inactive) with IGROV-1; 35.6 µM (inactive) with K562; 36.1 µM (inactive) in the experiment with LOX IMVI; 62.4 µM (inactive) in the experiment on NCI/ADR-RES; 52.7 µM (inactive) in the experiment with OVCAR-3. Also, the GI50 is 68.1 µM (inactive) with OVCAR-8; 30.3 µM (inactive) in the experiment with RPMI-8226; 68.5 µM (inactive) in the experiment on SF-268; 55.1 µM (inactive) in the experiment with SNB-75; 90.6 µM (inactive) in the experiment with SW-620; 34.2 µM (inactive) in the experiment with T47D. In the experiment on U-251, the GI50 is 91.2 µM (inactive).

For `CC(C)OC(=O)c1ccc(NCc2cc(O)ccc2O)cc1`, the GI50 is 22.5 µM (inactive) in the experiment on A498; 2.38 µM (inactive) in the experiment with BT-549; 0.27 µM (active) in the experiment on CCRF-CEM; 3.06 µM (inactive) in the experiment with COLO 205; 5.81 µM (inactive) with HCT-116; 1.95 µM (inactive) in the experiment with HOP-92. For the same molecule, the GI50 is 2.04 µM (inactive) in the experiment with Hs-578T; 3.45 µM (inactive) with IGROV-1; 0.946 µM (active) in the experiment on K562; 3.4 µM (inactive) in the experiment with LOX IMVI; 1.95 µM (inactive) in the experiment on NCI/ADR-RES; 1.47 µM (inactive) in the experiment on OVCAR-3. The GI50 is 2.51 µM (inactive) in the experiment with OVCAR-8; 0.483 µM (active) in the experiment with RPMI-8226; 4.07 µM (inactive) with SF-268; 4.61 µM (inactive) with SNB-75; 4.86 µM (inactive) with SW-620; 2.18 µM (inactive) in the experiment with T47D. For the same molecule, the GI50 in the experiment on U-251 was 4.32 µM (inactive).

Take `COc1ccc(/C=N/NC(=S)Nc2cc(C)ccc2OC)cc1`: the GI50 in the experiment with A498 is 35.2 µM (inactive); with BT-549, 26.6 µM (inactive); in the experiment with CCRF-CEM it was 22.3 µM (inactive); in the experiment with COLO 205, 17 µM (inactive); in the experiment with HCT-116 it was 29.2 µM (inactive); in the experiment on HOP-92 it was 25.2 µM (inactive). Moreover, the GI50 with Hs-578T is 78.5 µM (inactive); in the experiment with IGROV-1 it was 33.5 µM (inactive); in the experiment with K562, 0.63 µM (active); in the experiment on LOX IMVI, 43.8 µM (inactive); in the experiment with NCI/ADR-RES it was 41.9 µM (inactive); in the experiment with OVCAR-3, 40.2 µM (inactive). In addition, the GI50 in the experiment with OVCAR-8 was 37.6 µM (inactive); in the experiment with RPMI-8226, 11.1 µM (inactive); with SF-268, 48.9 µM (inactive); in the experiment on SNB-75 it was > 100 µM (inactive); in the experiment with SW-620 it was 34.7 µM (inactive); with T47D it was 32.9 µM (inactive).

As to `COc1ccc(C)cc1Nc1nnc(-c2ccccc2N)s1`, the GI50 in the experiment with A498 is 74.8 µM (inactive); in the experiment with BT-549, 62.7 µM (inactive); with CCRF-CEM, 32.3 µM (inactive); in the experiment with COLO 205, 36.8 µM (inactive); in the experiment on HCT-116, 37.3 µM (inactive); with HOP-92 it was 21.3 µM (inactive). The GI50 is 36.2 µM (inactive) in the experiment on Hs-578T; 18 µM (inactive) in the experiment on IGROV-1; 13.7 µM (inactive) in the experiment with K562; 47.1 µM (inactive) in the experiment with LOX IMVI; 34.8 µM (inactive) in the experiment on NCI/ADR-RES; 37.5 µM (inactive) in the experiment on OVCAR-3. The GI50 in the experiment on OVCAR-8 is 35.7 µM (inactive); in the experiment on RPMI-8226 it was 18.1 µM (inactive); with SF-268, > 100 µM (inactive); in the experiment with SNB-75, 55 µM (inactive); in the experiment with SW-620 it was 36.1 µM (inactive); with T47D it was 49.2 µM (inactive).

As for `O=c1[nH]cnc2c1ncn2[C@@H]1C[C@@H]1CO`, the GI50 was > 10 µM (inactive) in the experiment with A498; > 100 µM (inactive) in the experiment with BT-549; > 100 µM (inactive) in the experiment with CCRF-CEM; > 100 µM (inactive) in the experiment on COLO 205; > 100 µM (inactive) with HCT-116; > 100 µM (inactive) with HOP-92. The GI50 in the experiment with Hs-578T is 6.22 µM (inactive); in the experiment on IGROV-1, > 100 µM (inactive); in the experiment with K562 it was > 100 µM (inactive); in the experiment with LOX IMVI it was > 100 µM (inactive); with NCI/ADR-RES it was > 100 µM (inactive); with OVCAR-8, > 100 µM (inactive). Further, the GI50 with RPMI-8226 is > 10 µM (inactive); with SF-268, > 100 µM (inactive); with SNB-75 it was > 100 µM (inactive); in the experiment with SW-620 it was > 100 µM (inactive); with T47D, > 100 µM (inactive); in the experiment on U-251 it was > 100 µM (inactive).

Consider `Cc1cc2c(cc1Cl)SC(NNc1cnc3ccccc3n1)=NS2(=O)=O`, for which the GI50 was 22.8 µM (inactive) with A498; > 100 µM (inactive) in the experiment with BT-549; 46.8 µM (inactive) with CCRF-CEM; 49.7 µM (inactive) with COLO 205; 48.1 µM (inactive) in the experiment on HCT-116; 35.7 µM (inactive) in the experiment on HOP-92. For the same molecule, the GI50 in the experiment on Hs-578T is 51.9 µM (inactive); in the experiment on IGROV-1, 41.8 µM (inactive); with K562, 73.3 µM (inactive); in the experiment with LOX IMVI, 46 µM (inactive); in the experiment on NCI/ADR-RES it was > 100 µM (inactive); in the experiment on OVCAR-3, 47.4 µM (inactive). Besides, the GI50 in the experiment on OVCAR-8 was 68.5 µM (inactive); with SF-268 it was 32.3 µM (inactive); in the experiment with SNB-75, 72.3 µM (inactive); in the experiment with SW-620, 67.8 µM (inactive); in the experiment with T47D, 55.1 µM (inactive); in the experiment with U-251, 48.6 µM (inactive).

As for `O=C(O)c1cccc(Nc2c(C(=O)O)cccc2[N+](=O)[O-])c1`, the GI50 in the experiment on A498, in the experiment on BT-549, with CCRF-CEM, with COLO 205, in the experiment on HCT-116 and in the experiment with HOP-92 was > 100 µM (inactive) throughout. Further, the GI50 in the experiment with Hs-578T, in the experiment on IGROV-1, in the experiment on K562, in the experiment on LOX IMVI, in the experiment with NCI/ADR-RES and in the experiment with OVCAR-3 was > 100 µM (inactive) throughout. Further, the GI50 in the experiment on OVCAR-8, in the experiment with RPMI-8226, in the experiment with SNB-75 and with T47D was > 100 µM (inactive) each time.
